Experimental data taken from PMC8325564 (Biochemistry, 2020).
“And” between values parts separate entries of the source, which are not always exact repeats. Equal values may be shown once. Read-outs that look alike come from different tables or passages of the source.

Legend:
AK3 [1] = target: T1, AK3 (Homo sapiens, UniProt Q9UIJ7); assay: NMR 15N-HSQC chemical shift titration of ligand binding to AK3
AK3 [2] = target: T1, AK3; assay: isothermal titration calorimetry; format: binding; conditions: for ΔHITC0: ITC binding enthalpy; for ΔHITC0 / −TΔSITC0 / ΔGITC0 / Kd: 25 °C; for −TΔSITC0: ITC binding entropy term; for ΔGITC0: ITC binding free energy; for n: ITC binding ratio (stoichiometry); for Kd: ITC
AK3 [3] = target: T1, AK3; assay: coupled enzymatic assay of AK3 activity; format: biochemical
LcrG = LcrG (Yersinia pseudotuberculosis serotype I, UniProt P69958); assay: biochemical; format: binding
AK3 [4] = target: T1, AK3; assay: biochemical; conditions: KI´ (competitive inhibition), mixed inhibition model, 1.7 mM ATP, AMP variation
AKeco [5] = target: T2, AKeco (Escherichia coli, UniProt P69441); conditions: binding to AKeco; cited from earlier work
human α-synuclein = human α-synuclein (Homo sapiens, UniProt P37840); assay: NMR titration of ATP to α-synuclein; format: binding
AKeco [6] = target: T2, AKeco; assay: NMR titration of ATP to AKeco with adenosine binding sites blocked by AP5A; parameters: species or system E. coli
[7] = test system: AKeco (E. coli adenylate kinase); conditions: cited from earlier work
[8] = Table 2, average of three technical replicates, pH 7.0

T1 sequence (Q9UIJ7 whole entry): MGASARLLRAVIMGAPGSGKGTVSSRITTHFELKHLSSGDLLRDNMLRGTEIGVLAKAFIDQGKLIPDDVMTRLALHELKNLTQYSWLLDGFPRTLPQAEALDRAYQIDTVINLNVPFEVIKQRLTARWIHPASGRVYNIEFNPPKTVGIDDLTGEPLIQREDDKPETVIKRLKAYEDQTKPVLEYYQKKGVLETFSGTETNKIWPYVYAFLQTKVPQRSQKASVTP
T2 sequence (P69441 whole entry): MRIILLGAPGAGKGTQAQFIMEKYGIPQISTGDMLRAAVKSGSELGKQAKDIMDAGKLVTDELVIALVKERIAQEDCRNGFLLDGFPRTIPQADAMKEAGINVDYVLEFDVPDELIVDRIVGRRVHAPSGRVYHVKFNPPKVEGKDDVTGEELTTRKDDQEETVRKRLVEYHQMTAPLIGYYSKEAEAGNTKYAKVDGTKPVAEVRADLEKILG
Sequence of LcrG (P69958 whole entry, looked up): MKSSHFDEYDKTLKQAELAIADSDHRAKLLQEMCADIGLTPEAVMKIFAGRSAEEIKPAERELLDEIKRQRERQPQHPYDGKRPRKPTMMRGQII

SMILES	Kd (AK3 [1])	ΔHITC0 (AK3 [2]; pH 7.0)	−TΔSITC0 (AK3 [2]; pH 7.0)	ΔGITC0 (AK3 [2]; pH 7.0)	n (AK3 [2])	Kd (AK3 [2]; 30 mM MOPS pH 7.0, 50 mM NaCl)	Kd (AK3 [2]; [8])	catalytic GTP versus ATP specificity (AK3 [3])	Kd (LcrG)	Ki (AK3 [4])	Kd (AKeco [5])	Kd (human α-synuclein)	Kd (AKeco [6])	Km ([7]; AKeco with ATP)	difference of the catalytic activity between ATP and GTP ([7]; AKeco)
Nc1nc2c(ncn2[C@@H]2O[C@H](COP(=O)(O)OP(=O)(O)OP(=O)(O)O)[C@@H](O)[C@H]2O)c(=O)[nH]1 [GTP, guanosine triphosphate]	1700 ± 1000 µM	−11.3 ± 0.3 kcalmol^−1	3.5 ± 0.4 kcalmol^−1	−7.8 ± 0.1 kcalmol^−1	1.07 ± 0.025	~2 µM and 2 µM	2.1 ± 0.5 µM	~40 fold	–	–	–	–	–	–	–
Nc1ncnc2c1ncn2[C@@H]1O[C@H](COP(=O)(O)OP(=O)(O)OP(=O)(O)O)[C@@H](O)[C@H]1O [ATP, adenosine triphosphate]	9000 ± 3800 µM	−11.1 ± 0.5 kcalmol^−1	4.4 ± 0.6 kcalmol^−1	−6.7 ± 0.1 kcalmol^−1	0.94 ± 0.015	~13 µM	13 ± 2 µM	–	12000 ± 800 µM	200 µM	50 µM	13000 ± 2400 µM	12000 ± 2100 µM	63 ± 7 µM	60 fold
Nc1ncnc2c1ncn2[C@@H]1O[C@H](COP(=O)(O)O)[C@@H](O)[C@H]1O [AMP, adenosine monophosphate]	–	–	–	–	–	–	–	–	–	–	210 ± 66 µM	–	–	–	–
